Experiments:
[1] = target: Sodium-dependent dopamine transporter (Homo sapiens, UniProt Q01959); assay: DRUGMATRIX: Dopamine Transporter radioligand binding (ligand: [125I] RTI-55); format: cell membranes, CHO-K1, Membrane; details: cho-k1; Not Active = under 50% inhibition at 10 µM
[2] = target: Histamine H2 receptor (Homo sapiens, UniProt P25021); format: cell membranes, CHO-K1, Membrane; details: cho-k1; also: in other assays of this panel Not Active means under 50% inhibition at 10 µM
[3] = DRUGMATRIX: GABAA, Chloride Channel, TBOB radioligand binding (ligand: [3H] TBOB); format: cell membranes, Rattus norvegicus, Wistar, Cerebral cortex, Membrane; details: Not Active = under 50% inhibition at 10 µM
[4] = DRUGMATRIX: Glutamate, NMDA, Agonism radioligand binding (ligand: [3H] CGP-39653); format: cell membranes, Rattus norvegicus, Wistar, Cerebral cortex, Membrane; details: Not Active = under 50% inhibition at 10 µM
[5] = target: T1, Alpha-1D adrenergic receptor (Homo sapiens, UniProt P25100); format: cell membranes, HEK293, Membrane; details: hek293; also: in other assays of this panel Not Active means under 50% inhibition at 10 µM
T1 sequence (P25100 whole entry): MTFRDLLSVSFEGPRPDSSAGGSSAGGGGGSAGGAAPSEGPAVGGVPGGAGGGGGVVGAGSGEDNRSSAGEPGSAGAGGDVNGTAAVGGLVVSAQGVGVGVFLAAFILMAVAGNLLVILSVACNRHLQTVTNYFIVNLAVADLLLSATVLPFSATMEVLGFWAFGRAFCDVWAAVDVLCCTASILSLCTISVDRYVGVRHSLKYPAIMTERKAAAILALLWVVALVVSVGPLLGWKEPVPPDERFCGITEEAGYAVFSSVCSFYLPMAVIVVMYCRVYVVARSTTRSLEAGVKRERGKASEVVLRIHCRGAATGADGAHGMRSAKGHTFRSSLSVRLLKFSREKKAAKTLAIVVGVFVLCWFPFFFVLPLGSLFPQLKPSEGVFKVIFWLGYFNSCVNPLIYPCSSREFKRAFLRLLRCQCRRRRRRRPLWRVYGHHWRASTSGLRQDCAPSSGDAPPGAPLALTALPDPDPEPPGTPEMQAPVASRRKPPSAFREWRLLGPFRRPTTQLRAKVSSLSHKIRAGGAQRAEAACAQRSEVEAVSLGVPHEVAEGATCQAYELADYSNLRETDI

[6] = target: T2, Nitric oxide synthase, inducible (Mus musculus, UniProt P29477); parameters: species or system Escherichia coli;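 also: inhibition of iNOS enzyme activity measured with L-arginine as substrate; in other assays of this panel Not Active means under 50% inhibition at 10 µM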
T2 sequence (P29477 whole entry): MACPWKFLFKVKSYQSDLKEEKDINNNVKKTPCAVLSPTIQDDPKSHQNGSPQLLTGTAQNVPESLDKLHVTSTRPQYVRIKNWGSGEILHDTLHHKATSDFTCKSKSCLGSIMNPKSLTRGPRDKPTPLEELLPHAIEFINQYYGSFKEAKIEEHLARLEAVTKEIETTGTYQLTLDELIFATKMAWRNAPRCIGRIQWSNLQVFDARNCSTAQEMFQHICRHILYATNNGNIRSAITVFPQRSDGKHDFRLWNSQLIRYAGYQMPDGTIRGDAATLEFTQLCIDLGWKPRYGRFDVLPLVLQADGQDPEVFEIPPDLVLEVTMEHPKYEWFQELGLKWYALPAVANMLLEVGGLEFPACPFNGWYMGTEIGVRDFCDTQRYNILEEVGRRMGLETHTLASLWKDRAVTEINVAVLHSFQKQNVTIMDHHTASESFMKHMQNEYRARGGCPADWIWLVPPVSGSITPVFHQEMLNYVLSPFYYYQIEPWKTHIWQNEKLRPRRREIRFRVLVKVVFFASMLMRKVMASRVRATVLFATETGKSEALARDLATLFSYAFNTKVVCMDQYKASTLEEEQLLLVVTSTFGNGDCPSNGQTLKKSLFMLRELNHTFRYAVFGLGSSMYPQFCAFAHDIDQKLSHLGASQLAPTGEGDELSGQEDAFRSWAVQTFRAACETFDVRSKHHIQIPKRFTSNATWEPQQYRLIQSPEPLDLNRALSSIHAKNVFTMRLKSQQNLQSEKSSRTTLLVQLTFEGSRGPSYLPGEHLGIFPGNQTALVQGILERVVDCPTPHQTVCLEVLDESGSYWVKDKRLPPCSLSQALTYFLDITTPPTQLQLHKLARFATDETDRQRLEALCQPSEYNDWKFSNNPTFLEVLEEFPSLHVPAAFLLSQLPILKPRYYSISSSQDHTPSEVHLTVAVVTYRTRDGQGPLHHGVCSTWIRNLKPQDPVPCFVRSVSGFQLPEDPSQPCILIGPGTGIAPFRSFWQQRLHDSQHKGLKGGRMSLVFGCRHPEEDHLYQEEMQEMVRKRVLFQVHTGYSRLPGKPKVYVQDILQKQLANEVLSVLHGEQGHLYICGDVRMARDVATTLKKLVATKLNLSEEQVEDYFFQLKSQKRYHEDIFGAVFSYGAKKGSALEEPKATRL

Histamine H2 receptor, sequence (P25021 whole entry): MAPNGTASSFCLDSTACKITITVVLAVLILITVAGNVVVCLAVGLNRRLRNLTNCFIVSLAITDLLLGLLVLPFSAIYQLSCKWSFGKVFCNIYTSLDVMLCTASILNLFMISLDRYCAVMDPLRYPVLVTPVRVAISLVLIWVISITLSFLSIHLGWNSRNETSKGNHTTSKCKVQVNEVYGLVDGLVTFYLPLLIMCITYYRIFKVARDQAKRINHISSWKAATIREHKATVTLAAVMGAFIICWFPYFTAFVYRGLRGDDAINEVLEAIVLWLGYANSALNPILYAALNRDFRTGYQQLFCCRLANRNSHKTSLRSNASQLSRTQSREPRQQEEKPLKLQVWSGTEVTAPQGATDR
Sodium-dependent dopamine transporter, sequence (Q01959 whole entry): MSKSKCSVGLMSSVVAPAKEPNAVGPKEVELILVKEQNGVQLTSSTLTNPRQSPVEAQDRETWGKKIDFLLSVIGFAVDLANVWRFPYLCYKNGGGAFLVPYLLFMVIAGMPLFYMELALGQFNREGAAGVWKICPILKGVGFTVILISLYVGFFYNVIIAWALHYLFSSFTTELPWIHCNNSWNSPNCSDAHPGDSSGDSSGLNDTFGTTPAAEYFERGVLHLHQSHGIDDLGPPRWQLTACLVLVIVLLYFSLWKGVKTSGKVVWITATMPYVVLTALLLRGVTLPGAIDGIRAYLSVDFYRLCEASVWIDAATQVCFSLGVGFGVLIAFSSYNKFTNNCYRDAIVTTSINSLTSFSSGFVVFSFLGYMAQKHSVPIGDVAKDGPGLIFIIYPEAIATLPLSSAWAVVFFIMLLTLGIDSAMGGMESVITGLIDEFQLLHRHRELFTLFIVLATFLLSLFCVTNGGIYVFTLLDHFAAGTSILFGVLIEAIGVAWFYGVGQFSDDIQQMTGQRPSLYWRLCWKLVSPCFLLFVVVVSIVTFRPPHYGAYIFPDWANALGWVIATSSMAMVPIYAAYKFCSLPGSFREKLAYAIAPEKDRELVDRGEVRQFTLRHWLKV

COc1ccc(C[C@H](N)C(=O)N[C@H]2[C@@H](O)[C@H](n3cnc4c(N(C)C)ncnc43)O[C@@H]2CO)cc1 [PUROMYCIN]
Not Active: IC50 [1] | IC50 [2] | IC50 [3] | Ki [3] | IC50 [4] | Ki [4] | IC50 [5] | IC50 [6]

O=c1[nH]c2ccccc2c2ccccc12
Not Active: IC50 [1] | IC50 [2] | IC50 [3] | Ki [3] | IC50 [4] | Ki [4] | IC50 [5] | IC50 [6]

COPPER(II) OXIDE
Not Active: IC50 [1] | Ki [1] | IC50 [2] | Ki [2] | IC50 [3] | Ki [3] | IC50 [4] | Ki [4] | IC50 [5] | Ki [5] | IC50 [6] | Ki [6]

CC12CCC(CC1)C(C)(C)O2 [EUCALYPTOL]
Not Active: IC50 [1] | IC50 [2] | IC50 [3] | Ki [3] | IC50 [4] | Ki [4] | IC50 [5] | IC50 [6]
